# From patent US12320799B2, “Methods of measuring signaling pathway activity for selection of therapeutic agents” (Celcuity Inc., priority 2017, dated 2025)
# Where two headings read alike, the source gives them in different places.
# What was measured:
# [1] = tested on: HER3 pathway; assay: Pathway ultrasensitivity test (EC90/EC10 of activator agent), impedance biosensor; assay type: cell-based, human; details: for EC90: read-out: EC90 Concentration
# Source text: (§1) Biosensor and transducer: A 96-well impendence E-Plate (ACEA, San Diego, CA) was placed onto an xCELLigence RTCA MP Station impendence biosensor (ACEA, San Diego, CA). The biosensor measured simultaneously the impedance of every well. The change in impedance for a particular well is proportional to the number of cells and type of attachment the cells have with the impedance microplate. Changes in impedance indicate a response to activation of these small cell populations. Coatings: The 96-E-Plate were wells were coated with fibronectin and or collagen. Collagen is purchased from Advanced BioMatrix (Carlsbad, CA) and fibronectin from Sigma-Aldrich (St. Louis, MO). Tissue and cell samples: Five different samples of human cells from breast tumors (R131, R39, R36, R20, R82) and two different samples of human cells from non-small cell lung cancer (NSCLC) tumors were studied (C15 and C23). Any biomarkers that are used to guide selection of targeted therapy are listed in Table 20 for each patient if they were present. Signaling Pathways activator: NRG1, a HER3 agonist, was used to stimulate the HER3 pathway in each of the five breast cancer cell samples. The EC90 and EC10 concentrations of the signaling pathway activator agent were also derived for each breast cancer sample.
# (§2) In each of the two NSCLC cell samples, four different activating agents were used to stimulate either the EGF or HER3 pathways. The EC90 and EC10 concentrations of the signaling pathway activator agent were also derived for each NSCLC cell sample.
# (§3) Other Reagents: Standard media antibiotics (e.g. penicillin, streptomycin) and other buffers were purchased and used as delivered from ATCC (Manassas, VA, USA) or Life Technologies (Grand Island, NY). Procedure: For each test of a patient cell sample with two different concentrations of signaling pathway activator, six wells were seeded with approximately 15,000 cells in 120 uL culture media. […] The impedance recording of attachment and adhesion change was performed at 37° C., 5% CO2. Data was recorded on a continuous basis throughout the test, where the data presented is from the initial baseline level of cell attachment compared to the subsequent effects following the additions of two concentrations of the signaling pathway activator agent on the 12 different patient samples. Results:
# (§4) For each patient cell sample tested, output values were calculated for the signaling pathway activity measured after addition of the two different concentrations of the signaling pathway activator agent. To determine the sensitivity of the signaling pathway to the signaling pathway activator agent, the sensitivity was calculated using the two output values. When the ratio of the EC90 to EC10 is less than 81, the pathway is considered to be ultra-sensitive; otherwise the pathway is considered to be normally sensitive.
# [2] = tested on: EGF pathway; assay: as above; assay type: cell-based, human; details: for EC90: read-out: EC90 Concentration
# Source text: as §1, §2, §3, §4
# [3] = NSCLC cell sample C23, HER3 pathway
# [4] = NSCLC cell sample C15, EGF pathway
# [5] = NSCLC cell sample C23, EGF pathway
substance,measurement,setting,value
NRG1,Pathway Sensitivity Status (normal or ultra),[1]; [3],"Ultra (When the ratio of the EC90 to EC10 is less than 81, the pathway is considered to be ultra-sensitive)"
same,Sensitivity Calculation Result (ratio of the EC90 to EC10 of activating agent),[1]; [3],11.19
same,EC10 Concentration,[1]; NSCLC tumor cell sample C23,399 pM
same,EC90,[1]; NSCLC tumor cell sample C23,4460 pM
same,EC10 Concentration,[1]; breast tumor cell sample R20,236 pM
same,Pathway Sensitivity Status (normal or ultra),[1]; breast tumor cell sample R20,"Ultra (When the ratio of the EC90 to EC10 is less than 81, the pathway is considered to be ultra-sensitive)"
same,Sensitivity Calculation Result (EC90/EC10 ratio),[1]; breast tumor cell sample R20,18.44
same,EC90,[1]; breast tumor cell sample R20,2140 pM
same,EC10 Concentration,[1]; breast tumor cell sample R36,215 pM
same,Pathway Sensitivity Status (normal or ultra),[1]; breast tumor cell sample R36,"Ultra (When the ratio of the EC90 to EC10 is less than 81, the pathway is considered to be ultra-sensitive)"
same,Sensitivity Calculation Result (EC90/EC10 ratio),[1]; breast tumor cell sample R36,27.61
same,EC90,[1]; breast tumor cell sample R36,1960 pM
same,EC10 Concentration,[1]; breast tumor cell sample R39,173 pM
same,Pathway Sensitivity Status (normal or ultra),[1]; breast tumor cell sample R39,"Ultra (When the ratio of the EC90 to EC10 is less than 81, the pathway is considered to be ultra-sensitive)"
same,Sensitivity Calculation Result (EC90/EC10 ratio),[1]; breast tumor cell sample R39,45.96
same,EC90,[1]; breast tumor cell sample R39,1600 pM
same,EC10 Concentration,[1]; breast tumor cell sample R82,193 pM
same,Pathway Sensitivity Status (normal or ultra),[1]; breast tumor cell sample R82,Normal (otherwise the pathway is considered to be normally sensitive)
same,Sensitivity Calculation Result (EC90/EC10 ratio),[1]; breast tumor cell sample R82,95.1
same,EC90,[1]; breast tumor cell sample R82,1790 pM
same,EC10 Concentration,[1]; breast tumor cell sample R131,133 pM
same,Pathway Sensitivity Status (normal or ultra),[1]; breast tumor cell sample R131,"Ultra (When the ratio of the EC90 to EC10 is less than 81, the pathway is considered to be ultra-sensitive)"
same,Sensitivity Calculation Result (EC90/EC10 ratio),[1]; breast tumor cell sample R131,38.32
same,EC90,[1]; breast tumor cell sample R131,1230 pM
Amphiregulin,Pathway Sensitivity Status (normal or ultra),[2]; [4],"Ultra (When the ratio of the EC90 to EC10 is less than 81, the pathway is considered to be ultra-sensitive)"
same,Sensitivity Calculation Result (ratio of the EC90 to EC10 of activating agent),[2]; [4],65.65
same,EC10 Concentration,[2]; NSCLC tumor cell sample C15,45.7 pM
same,EC90,[2]; NSCLC tumor cell sample C15,3000 pM
TGF alpha,Pathway Sensitivity Status (normal or ultra),[2]; [4],"Ultra (When the ratio of the EC90 to EC10 is less than 81, the pathway is considered to be ultra-sensitive)"
same,Sensitivity Calculation Result (ratio of the EC90 to EC10 of activating agent),[2]; [4],44.15
same,Pathway Sensitivity Status (normal or ultra),[2]; [5],"Ultra (When the ratio of the EC90 to EC10 is less than 81, the pathway is considered to be ultra-sensitive)"
same,Sensitivity Calculation Result (ratio of the EC90 to EC10 of activating agent),[2]; [5],21.25
same,EC10 Concentration,[2]; NSCLC tumor cell sample C15,8.2 pM
same,EC90,[2]; NSCLC tumor cell sample C15,362 pM
same,EC10 Concentration,[2]; NSCLC tumor cell sample C23,8.8 pM
same,EC90,[2]; NSCLC tumor cell sample C23,187 pM
HB-EGF,Pathway Sensitivity Status (normal or ultra),[2]; [4],"Ultra (When the ratio of the EC90 to EC10 is less than 81, the pathway is considered to be ultra-sensitive)"
same,Sensitivity Calculation Result (ratio of the EC90 to EC10 of activating agent),[2]; [4],63.75
same,Pathway Sensitivity Status (normal or ultra),[2]; [5],"Ultra (When the ratio of the EC90 to EC10 is less than 81, the pathway is considered to be ultra-sensitive)"
same,Sensitivity Calculation Result (ratio of the EC90 to EC10 of activating agent),[2]; [5],66.67
same,EC10 Concentration,[2]; NSCLC tumor cell sample C15,1.6 pM
same,EC90,[2]; NSCLC tumor cell sample C15,102 pM
same,EC10 Concentration,[2]; NSCLC tumor cell sample C23,3.0 pM
same,EC90,[2]; NSCLC tumor cell sample C23,200 pM
Betacellulin,Pathway Sensitivity Status (normal or ultra),[2]; [4],"Ultra (When the ratio of the EC90 to EC10 is less than 81, the pathway is considered to be ultra-sensitive)"
same,Sensitivity Calculation Result (ratio of the EC90 to EC10 of activating agent),[2]; [4],41.67
same,Pathway Sensitivity Status (normal or ultra),[2]; [5],"Ultra (When the ratio of the EC90 to EC10 is less than 81, the pathway is considered to be ultra-sensitive)"
same,Sensitivity Calculation Result (ratio of the EC90 to EC10 of activating agent),[2]; [5],29.39
same,EC10 Concentration,[2]; NSCLC tumor cell sample C15,2.4 pM
same,EC90,[2]; NSCLC tumor cell sample C15,100 pM
same,EC10 Concentration,[2]; NSCLC tumor cell sample C23,6.6 pM
same,EC90,[2]; NSCLC tumor cell sample C23,194 pM
